From patent publication US12428391B2, “Dimethylsulfoximine derivative” (CISEN PHARMACEUTICAL CO., LTD, priority 2020, dated 2025)

Columns and labels:
NLRP3 = target: T1, NLRP3 (Homo sapiens, UniProt Q96P20); assay: IC50 experiment for the detection of NLRP3 antagonist using THP-1 cells (IL-1β secretion, PMA/LPS/ATP); type: cell-based
T1 construct: endogenous in cells
Excerpt: The chemical names and structural formulas of the compounds of the present disclosure for experimental use are shown in the preparation embodiments for each compound. • 1. Experimental principle: In this experiment, the human monocytic cell line THP1 was used to study the inhibitory activity (IC50) of NLRP3 antagonists on the secretion of IL-1β. The monocytic cell line THP1 was differentiated into mature macrophages using PMA (phorbol 12-myristate 13-acetate), and then the cells were stimulated using LPS (lipopolysaccharide), an agonist of Toll-like receptor TLR4, to activate the transcriptional activity of inflammasome NLRP3 and the expression of IL-1β precursor pro-IL-1β. At this time, the NLRP3 antagonist was added, and then ATP was added to further mature and activate NLRP3, and activate downstream caspase-1. Pro-IL-1β could be enzyme-cleaved by the activated caspase-1 to mature IL-1β that could be secreted.

[1] = Pharmacokinetic evaluation of compounds in mice; type: in vivo; details: C57BL/6J mice
Method: Experimental Objective: To Test the Pharmacokinetics of Compounds in Mice
Experimental Materials: C57BL/6J Mice (Male, 6-8 Weeks Old)
Experimental operation: The clear solution obtained after the test compound was dissolved was administered to […] C57BL/6J mice (overnight fasting, 6-8 weeks old) via tail intravenous injection and intragastric administration (vehicle: 10% DMSO/10% solutol/80% water). After administration of test compound or control compound, blood was collected from the mandibular vein and centrifuged to obtain plasma at 0.0833, 0.25, 0.5, 1, 2, 4, 8 and 24 h for the intravenous injection group (IV) and at 0.25, 0.5, 1, 2, 4, 6, 8 and 24 h for the intragastric administration group (PO). The plasma concentration was determined by LC-MS/MS, and relevant pharmacokinetic parameters were calculated by the non-compartmental model linear logarithmic trapezoidal method using pharmacokinetic software WinNonlin™ Version 6.3. Meaning of each parameter: T1/2: half-life; Cmax: peak concentration; AUC0-inf: area under the plasma concentration-time curve from time 0 extrapolated to infinite time; F: bioavailability, Vd: apparent volume of distribution, Cl: clearance rate, Tmax: time to peak.

[2] = test system: MSU-induced Air Pouch acute gout model; assay: MSU-induced Air Pouch acute gout model, IL-6 and IL-1β in APLV; type: in vivo, C57BL/6 mice; details: for level of IL-1β in APLV after treatment / level of IL-6 in APLV after treatment: MCC950 50 mg/kg po, 7a 50, 15, 5 mg/kg po, dexamethasone 10 mg/kg ip, MSU 3 mg
Method: Experimental Embodiment 3: Evaluation of the Therapeutic Effect of the Compound on the MSU-Induced Air Pouch Acute Gout Model in C57BL/6 Mice
Air Pouch of mouse is a cystic space similar to the human synovial membrane, and the injection of monosodium urate crystals (MSU) into the air pouch will cause an acute inflammatory response similar to human gout. The inflammatory cytokines IL-6 and IL-1β in the Air Pouch Lavage Fluid flushing fluid (APLV) were analyzed, and MCC950 was used as a control compound, and the efficacy of the compound of the present disclosure on the MSU-induced air pouch gout model in male C57BL/6 mice was tested.
On the seventh day, the drug was administered first, and the MSU crystal solution was injected into the air pouch after 1 hour, and the Air Pouch Lavage Fluid (APLV) was collected after 7 hours and analyzed.
1 g of uric acid was dissolved in 0.2 L of boiling water containing 6 mL of 1 N sodium hydroxide; after the pH was adjusted to 7.4, the solution was gradually cooled at room temperature and then left overnight at 4° C. MSU crystals were recovered by centrifugation and evaporated to dryness, dispensed into individual vials (3 mg), and sterilized by autoclaving.
Healthy C57BL/6 mice were numbered and grouped in the experiment, and 5 mL of sterile air was subcutaneously injected into the back of the mice on the same day of grouping (Day 1) and on the fourth day (Day 4) to generate an air pouch. On the seventh day (Day 7), each group of mice was given vehicle or test sample, and after 1 hour the suspension of MSU crystals (saline, 3 mg/mL) was injected into the air pouch. Air Pouch Lavage Fluid (APLV) would be collected after 6 hours, and ELISA kits would be used to test the levels of IL-6 and IL-1β in APLV. Results were expressed as average value±SEM. Statistical analysis was performed by a method of analysis of variance (ANOVA), followed by Dunnett test, and differences were considered significant when p<0.05.

type II diabete model = details: mice; cited from earlier work
NLRP3 inflammasome = NLRP3 inflammasome (Homo sapiens, UniProt Q96P20); details: cited from earlier work
[3] = test system: cryopyrin-associated auto-inflammatory syndrome (cAPS) model; details: mice; cited from earlier work
[4] = test system: experimental autoimmune encephalomyelitis (EAE); details: mice; cited from earlier work
[5] = at the dose of 15 mg/kg and 50 mg/kg po

T1 sequence (Q96P20 whole entry): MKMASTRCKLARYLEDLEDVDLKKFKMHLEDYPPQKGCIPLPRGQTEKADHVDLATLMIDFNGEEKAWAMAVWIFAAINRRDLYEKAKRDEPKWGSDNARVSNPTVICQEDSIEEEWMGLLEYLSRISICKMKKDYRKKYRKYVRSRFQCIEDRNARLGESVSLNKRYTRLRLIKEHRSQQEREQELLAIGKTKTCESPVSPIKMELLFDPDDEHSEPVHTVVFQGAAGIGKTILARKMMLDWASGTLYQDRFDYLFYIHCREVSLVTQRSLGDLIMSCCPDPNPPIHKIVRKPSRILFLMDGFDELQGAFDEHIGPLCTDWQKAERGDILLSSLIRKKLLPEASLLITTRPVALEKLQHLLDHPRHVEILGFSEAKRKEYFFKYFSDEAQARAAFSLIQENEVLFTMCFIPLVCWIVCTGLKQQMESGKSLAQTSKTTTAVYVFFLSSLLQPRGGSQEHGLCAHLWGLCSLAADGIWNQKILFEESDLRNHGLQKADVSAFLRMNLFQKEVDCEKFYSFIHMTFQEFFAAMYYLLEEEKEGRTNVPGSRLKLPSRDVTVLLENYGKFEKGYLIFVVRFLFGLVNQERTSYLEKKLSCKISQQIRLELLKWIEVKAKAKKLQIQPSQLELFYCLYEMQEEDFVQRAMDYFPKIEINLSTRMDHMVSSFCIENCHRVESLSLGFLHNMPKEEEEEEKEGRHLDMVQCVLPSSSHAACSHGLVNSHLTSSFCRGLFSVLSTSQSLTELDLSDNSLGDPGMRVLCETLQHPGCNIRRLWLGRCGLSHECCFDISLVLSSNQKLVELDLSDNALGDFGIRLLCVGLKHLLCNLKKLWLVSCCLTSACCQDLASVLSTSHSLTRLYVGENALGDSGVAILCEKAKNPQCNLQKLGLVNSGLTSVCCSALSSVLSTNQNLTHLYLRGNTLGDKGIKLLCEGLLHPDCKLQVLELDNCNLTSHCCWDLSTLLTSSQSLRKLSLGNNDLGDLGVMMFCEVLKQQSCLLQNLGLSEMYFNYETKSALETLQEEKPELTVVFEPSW
Sequence of NLRP3 inflammasome (Q96P20 whole entry): as above

CS(C)(=O)=Nc1ccc(S(=N)(=O)NC(=O)Nc2c3c(cc4c2CCC4)CCC3)s1 (single isomer, unassigned) [Compound 4a]
IC50 (NLRP3): 33.9 nM

COc1cc(-c2ccc3c(c2NC(=O)NS(=N)(=O)c2ccc(N=S(C)(C)=O)s2)CCC3)ccn1 (single isomer, unassigned) [Compound 5a]
IC50 (NLRP3): 7.4 nM

CS(C)(=O)=Nc1cnc(S(=N)(=O)NC(=O)Nc2c3c(cc4c2CCC4)CCC3)s1 (single isomer, unassigned) [Compound 7a]
F ([1]; PO 20 mg/kg vs IV 3 mg/kg): 67.6%
AUC(0-inf) ([1]; mouse, plasma, IV 3 mg/kg): 65.7 µM·h
Vd ([1]; mouse, plasma, IV 3 mg/kg): 0.25 L/kg
clearance ([1]; mouse, plasma, IV 3 mg/kg): 1.68 mL/min/kg
half-life ([1]; mouse, plasma, IV 3 mg/kg): 2.1 h
AUC(0-inf) ([1]; mouse, plasma, PO 20 mg/kg): 296 µM·h
Cmax ([1]; mouse, plasma, PO 20 mg/kg): 102 µM
Tmax ([1]; mouse, plasma, PO 20 mg/kg): 0.5 h
IC50 (NLRP3): 9.8 nM
level of IL-1β in APLV after treatment [2]: decreased rapidly
level of IL-6 in APLV after treatment [2]: decreased rapidly
reducing IL-6 in APLV compared with dexamethasone (10 mg/kg dose) ([2]; at high, medium and low doses (50, 15, 5 mg/kg po)): better than dexamethasone
reducing IL-1β in APLV compared with MCC950 (50 mg/kg dose) [2, 5]: significantly better than that of MCC950
reducing IL-1β in APLV compared with dexamethasone (10 mg/kg) [2, 5]: reaching the same effect as dexamethasone
reducing IL-6 in APLV compared with MCC950 (50 mg/kg dose) [2, 5]: better than MCC950
effect on reducing IL-1β in APLV ([2]; po, MSU-induced air pouch): significant effect

O=C(O)c1ccc(/C=C2\SC(=O)N(Cc3cccc(C(F)(F)F)c3)C2=O)cc1 [CY-09]
therapeutic effect on type II diabete model (type II diabete model): significant therapeutic effects
assembly and activation of NLRP3 inflammasome (NLRP3 inflammasome): specifically blocks
therapeutic effect on cAPS model [3]: significant therapeutic effects

COc1cc(-c2cccc(C(C)C)c2NC(=O)NS(=O)(=O)c2ccc(N=S(C)(C)=O)s2)ccn1 [Compound 2]
IC50 (NLRP3): 40 nM

COc1cc(-c2ccc3c(c2NC(=O)NS(=O)(=O)c2ccc(N=S(C)(C)=O)s2)CCC3)ccn1 [Compound 3]
IC50 (NLRP3): 10 nM

CS(C)(=O)=Nc1ccc(S(=N)(=O)NC(=O)Nc2c(-c3ccnc(C#N)c3)ccc3c2CCC3)s1 (stereo not drawn) [Compound 8]
IC50 (NLRP3): 27.8 nM

CC(C)(O)c1coc(S(=O)(=O)NC(=O)Nc2c3c(cc4c2CCC4)CCC3)c1 [MCC950, reference compound]
level of IL-1β in APLV after treatment [2]: decreased rapidly
level of IL-6 in APLV after treatment [2]: decreased rapidly
severity of experimental autoimmune encephalomyelitis (EAE) [4]: reduce the severity
